Measurements taken from ChEMBL document CHEMBL3868637, “Treatment of HIV Infections with HIV Integrase Inhibitors” (ACS Med Chem Lett, 2017).
pEC50: −log10 of the molar value.

What was measured:
[1] = Cytotoxicity against human MT4 cells assessed as reduction in cell viability measured after 5 days by CellTiter-Glo assay; assay type: toxicity, cell-based
[2] = Inhibition of HIV 3B integrase infected in human MT4 cells assessed as reduction in viral replication after 5 days by CellTiter-Glo assay; assay type: cell-based; conditions: Human immunodeficiency virus 1, 3B, MT4, 120 h

Row | SMILES | CC50 at 120 h [1] | pEC50 [2]
1 | C[C@@H]1CO[C@@]23CCOC[C@@H]2n2cc(C(=O)NCc4ccc(F)c(Cl)c4F)c(=O)c(O)c2C(=O)N13 | 7.53 µM | 8.74
2 | COc1c2n(cc(C(=O)NCc3ccc(F)c(Cl)c3F)c1=O)[C@H]1CCC[C@]13OCCN3C2=O | 4.94 µM | 8.60
3 | O=C(NCc1ccc(F)c(Cl)c1F)c1cn2c(c(O)c1=O)C(=O)N1CCS[C@]13COCC[C@H]23 | 10.8 µM | 8.92
4 | O=C(NCc1ccc(F)c(Cl)c1F)c1cn2c(c(O)c1=O)C(=O)N1CC=CC[C@]13CCOC[C@H]23 | 8.02 µM | 8.34
5 | O=C(NCc1c(F)cc(F)cc1F)c1cn2c(c(O)c1=O)C(=O)N1CCCC[C@]13COCC[C@H]23 | 33.6 µM | 8.71
6 | C[C@H]1CCO[C@]23CCC[C@H]2n2cc(C(=O)NCc4ccc(F)c(Cl)c4F)c(=O)c(O)c2C(=O)N13 | 17.5 µM | 7.93
